# Experimental data taken from ChEMBL document CHEMBL3509421, “FDA drug approval package for diclofenac acid (NDA 22-202 CP, Ref ID: 3374276)”.
# What was measured:
# [1] = Mean Cmax value of diclofenac following single oral dosing of 50 mg Cataflam tablet in healthy human; assay type: ADME, organism-based; design: dietary status Fed, dose 50 mg, dosed compound id 2.46815e+06, dosed compound name Diclofenac potassium, gender Mixed, regimen Single, route oral; details: both, plasma
# [2] = Geometric mean for Cmax of diclofenac following single oral dosing of 50 mg Cataflam tablet in healthy human; assay type: ADME, organism-based; design: dietary status Fed, dose 50 mg, dosed compound id 2.46815e+06, dosed compound name Diclofenac potassium, gender Mixed, regimen Single, route oral; details: both, plasma
# [3] = Median tmax of diclofenac following single oral dosing of 50 mg Cataflam tablet in healthy human; assay type: ADME, organism-based; design: dietary status Fed, dose 50 mg, dosed compound id 2.46815e+06, dosed compound name Diclofenac potassium, gender Mixed, regimen Single, route oral; details: both, plasma, read-out: Median Tmax
# [4] = Minimum tmax of diclofenac following single oral dosing of 50 mg Cataflam tablet in healthy human; assay type: ADME, organism-based, Plasma; design: dietary status Fed, dose 50 mg, dosed compound id 2.46815e+06, dosed compound name Diclofenac potassium, gender Mixed, regimen Single, route oral; details: in vivo
# [5] = Maximum tmax of diclofenac following single oral dosing of 50 mg Cataflam tablet in healthy human; assay type: ADME, organism-based, Plasma; design: dietary status Fed, dose 50 mg, dosed compound id 2.46815e+06, dosed compound name Diclofenac potassium, gender Mixed, regimen Single, route oral; details: in vivo
# [6] = Mean apparent terminal elimination rate constant value of diclofenac following single oral dosing of 50 mg Cataflam tablet in healthy human; assay type: ADME, organism-based, Plasma; design: dietary status Fed, dose 50 mg, dosed compound id 2.46815e+06, dosed compound name Diclofenac potassium, gender Mixed, regimen Single, route oral; details: in vivo
# [7] = Geometric mean for apparent terminal elimination rate constant of diclofenac following single oral dosing of 50 mg Cataflam tablet in healthy human; assay type: ADME, organism-based, Plasma; design: dietary status Fed, dose 50 mg, dosed compound id 2.46815e+06, dosed compound name Diclofenac potassium, gender Mixed, regimen Single, route oral; details: in vivo
# [8] = Mean AUC (0-t) value of diclofenac following single oral dosing of 50 mg Cataflam tablet in healthy human; assay type: ADME, organism-based; design: dietary status Fed, dose 50 mg, dosed compound id 2.46815e+06, dosed compound name Diclofenac potassium, gender Mixed, regimen Single, route oral; details: both, plasma
# [9] = Geometric mean for AUC (0-t) of diclofenac following single oral dosing of 50 mg Cataflam tablet in healthy human; assay type: ADME, organism-based; design: dietary status Fed, dose 50 mg, dosed compound id 2.46815e+06, dosed compound name Diclofenac potassium, gender Mixed, regimen Single, route oral; details: both, plasma
# [10] = Mean AUC (0-infinity) value of diclofenac following single oral dosing of 50 mg Cataflam tablet in healthy human; assay type: ADME, organism-based; design: time infinity, dietary status Fed, dose 50 mg, dosed compound id 2.46815e+06, dosed compound name Diclofenac potassium, gender Mixed, regimen Single, route oral; details: both, plasma, read-out: AUC (0-infinity)
# [11] = Geometric mean for AUC (0-infinity) of diclofenac following single oral dosing of 50 mg Cataflam tablet in healthy human; assay type: ADME, organism-based; design: dietary status Fed, dose 50 mg, dosed compound id 2.46815e+06, dosed compound name Diclofenac potassium, gender Mixed, regimen Single, route oral, time infinity; details: both, plasma, read-out: AUC (0-infinity)
# [12] = (§1) Mean Cmax of diclofenac following single oral dosing of 25 mg diclofenac potassium softgel capsule in healthy human; assay type: ADME, organism-based; design: dietary status Fasting, dose 25 mg, dosed compound id 2.46815e+06, dosed compound name Diclofenac potassium, gender Mixed, regimen Single, route oral, study doses 25/50 mg; details: both, plasma
# [13] = as §1; assay type: ADME, organism-based; design: dietary status Fed, dose 25 mg, dosed compound id 2.46815e+06, dosed compound name Diclofenac potassium, gender Mixed, regimen Single, route oral, study doses 25/50 mg; details: both, plasma
# [14] = (§2) Mean Cmax of diclofenac following single oral dosing of 50 mg diclofenac potassium softgel capsule in healthy human; assay type: ADME, organism-based; design: dietary status Fasting, dose 50 mg, dosed compound id 2.46815e+06, dosed compound name Diclofenac potassium, gender Mixed, regimen Single, route oral, study doses 25/50 mg; details: both, plasma
# [15] = as §2; assay type: ADME, organism-based; design: dietary status Fed, dose 50 mg, dosed compound id 2.46815e+06, dosed compound name Diclofenac potassium, gender Mixed, regimen Single, route oral, study doses 25/50 mg; details: both, plasma
# [16] = (§3) Mean AUC (0-t) of diclofenac following single oral dosing of 25 mg diclofenac potassium softgel capsule in healthy human; assay type: ADME, organism-based; design: dietary status Fasting, dose 25 mg, dosed compound id 2.46815e+06, dosed compound name Diclofenac potassium, gender Mixed, regimen Single, route oral, study doses 25/50 mg; details: both, plasma
# [17] = as §3; assay type: ADME, organism-based; design: dietary status Fed, dose 25 mg, dosed compound id 2.46815e+06, dosed compound name Diclofenac potassium, gender Mixed, regimen Single, route oral, study doses 25/50 mg; details: both, plasma
# [18] = (§4) Mean AUC (0-t) of diclofenac following single oral dosing of 50 mg diclofenac potassium softgel capsule in healthy human; assay type: ADME, organism-based; design: dietary status Fasting, dose 50 mg, dosed compound id 2.46815e+06, dosed compound name Diclofenac potassium, gender Mixed, regimen Single, route oral, study doses 25/50 mg; details: both, plasma
# [19] = as §4; assay type: ADME, organism-based; design: dietary status Fed, dose 50 mg, dosed compound id 2.46815e+06, dosed compound name Diclofenac potassium, gender Mixed, regimen Single, route oral, study doses 25/50 mg; details: both, plasma
# [20] = (§5) Mean AUC (0-infinity) of diclofenac following single oral dosing of 25 mg diclofenac potassium softgel capsule in healthy human; assay type: ADME, organism-based; design: time infinity, dietary status Fasting, dose 25 mg, dosed compound id 2.46815e+06, dosed compound name Diclofenac potassium, gender Mixed, regimen Single, route oral, study doses 25/50 mg; details: both, plasma, read-out: AUC (0-infinity)
# [21] = as §5; assay type: ADME, organism-based; design: time infinity, dietary status Fed, dose 25 mg, dosed compound id 2.46815e+06, dosed compound name Diclofenac potassium, gender Mixed, regimen Single, route oral, study doses 25/50 mg; details: both, plasma, read-out: AUC (0-infinity)
# [22] = (§6) Mean AUC (0-infinity) of diclofenac following single oral dosing of 50 mg diclofenac potassium softgel capsule in healthy human; assay type: ADME, organism-based; design: time infinity, dietary status Fasting, dose 50 mg, dosed compound id 2.46815e+06, dosed compound name Diclofenac potassium, gender Mixed, regimen Single, route oral, study doses 25/50 mg; details: both, plasma, read-out: AUC (0-infinity)
# [23] = as §6; assay type: ADME, organism-based; design: time infinity, dietary status Fed, dose 50 mg, dosed compound id 2.46815e+06, dosed compound name Diclofenac potassium, gender Mixed, regimen Single, route oral, study doses 25/50 mg; details: both, plasma, read-out: AUC (0-infinity)
# [24] = (§7) Mean Tmax of diclofenac following single oral dosing of 25 mg diclofenac potassium softgel capsule in healthy human; assay type: ADME, organism-based; design: dietary status Fasting, dose 25 mg, dosed compound id 2.46815e+06, dosed compound name Diclofenac potassium, gender Mixed, regimen Single, route oral, study doses 25/50 mg; details: both, plasma
# [25] = as §7; assay type: ADME, organism-based; design: dietary status Fed, dose 25 mg, dosed compound id 2.46815e+06, dosed compound name Diclofenac potassium, gender Mixed, regimen Single, route oral, study doses 25/50 mg; details: both, plasma
# [26] = (§8) Mean Tmax of diclofenac following single oral dosing of 50 mg diclofenac potassium softgel capsule in healthy human; assay type: ADME, organism-based; design: dietary status Fasting, dose 50 mg, dosed compound id 2.46815e+06, dosed compound name Diclofenac potassium, gender Mixed, regimen Single, route oral, study doses 25/50 mg; details: both, plasma
# [27] = as §8; assay type: ADME, organism-based; design: dietary status Fed, dose 50 mg, dosed compound id 2.46815e+06, dosed compound name Diclofenac potassium, gender Mixed, regimen Single, route oral, study doses 25/50 mg; details: both, plasma
# [28] = Mean Cmax of diclofenac following single oral dosing of 50 mg diclofenac potassium soft gelatin capsule in healthy human; assay type: ADME, organism-based; design: dietary status Fasting, dose 50 mg, dosed compound id 2.46815e+06, dosed compound name Diclofenac potassium, gender Mixed, regimen Single, route oral, study doses 25/50 mg; details: both, plasma
# [29] = Mean Cmax of diclofenac following single oral dosing of 25 mg diclofenac potassium soft gelatin capsule in healthy human; assay type: ADME, organism-based; design: dietary status Fasting, dose 25 mg, dosed compound id 2.46815e+06, dosed compound name Diclofenac potassium, gender Mixed, regimen Single, route oral, study doses 25/50 mg; details: both, plasma
# [30] = Mean Cmax of diclofenac following single oral dosing of 50 mg Cataflam in healthy human; assay type: ADME, organism-based; design: dietary status Fasting, dose 50 mg, dosed compound id 2.46815e+06, dosed compound name Diclofenac potassium, gender Mixed, regimen Single, route oral, study doses 50 mg; details: both, plasma
# [31] = Mean AUC(0-t) of diclofenac following single oral dosing of 50 mg diclofenac potassium soft gelatin capsule in healthy human; assay type: ADME, organism-based; design: dietary status Fasting, dose 50 mg, dosed compound id 2.46815e+06, dosed compound name Diclofenac potassium, gender Mixed, regimen Single, route oral, study doses 25/50 mg; details: both, plasma
# [32] = Mean AUC(0-t) of diclofenac following single oral dosing of 25 mg diclofenac potassium soft gelatin capsule in healthy human; assay type: ADME, organism-based; design: dietary status Fasting, dose 25 mg, dosed compound id 2.46815e+06, dosed compound name Diclofenac potassium, gender Mixed, regimen Single, route oral, study doses 25/50 mg; details: both, plasma
smiles,measurement,setting,value
O=C(O)Cc1ccccc1Nc1c(Cl)cccc1Cl [DICLOFENAC],Cmax,[1],713 ng/mL
same,Cmax,[2],621 ng/mL
same,Tmax,[3],2.33 h
same,Minimum Tmax,[4],0.5 h
same,Maximum Tmax,[5],4.53 h
same,lambda-z,[6],0.332 h⁻¹
same,lambda-z,[7],0.318 h⁻¹
same,AUC(0-t),[8],1180 ng·h/mL
same,AUC(0-t),[9],1150 ng·h/mL
same,AUC(0-inf),[10],1200 ng·h/mL
same,AUC(0-inf),[11],1180 ng·h/mL
same,Cmax,[12],1160 ng/mL
same,Cmax,[13],686 ng/mL
same,Cmax,[14],2360 ng/mL
same,Cmax,[15],1150 ng/mL
same,AUC(0-t),[16],691 ng·h/mL
same,AUC(0-t),[17],680 ng·h/mL
same,AUC(0-t),[18],1520 ng·h/mL
same,AUC(0-t),[19],1420 ng·h/mL
same,AUC(0-inf),[20],706 ng·h/mL
same,AUC(0-inf),[21],713 ng·h/mL
same,AUC(0-inf),[22],1550 ng·h/mL
same,AUC(0-inf),[23],1460 ng·h/mL
same,Tmax,[24],0.49 h
same,Tmax,[25],1.02 h
same,Tmax,[26],0.51 h
same,Tmax,[27],1.28 h
same,Cmax,[28],2040 ng/mL
same,Cmax,[29],1120 ng/mL
same,Cmax,[30],1170 ng/mL
same,AUC(0-t),[31],1200 ng·h/mL
same,AUC(0-t),[32],579 ng·h/mL
